Results from publication PMC4499129, “DNA3′pp5′G de-capping activity of aprataxin: effect of cap nucleoside analogs and structural basis for guanosine recognition” (Nucleic Acids Research, 2015).

Columns and labels:
[1] = biological target: T1, Aprataxin-(33-232) (Schizosaccharomyces pombe, UniProt O74859); assay: X-ray crystal structure, […] Å; type: binding; details: co-crystallised with 5 mM GMP, pH 8.0, active site of protomer B
T1 construct: gene hnt3; catalytic domain aa 33-232 (HIT domain + zinc finger), His10Smt3 tag cut by Ulp1, tag-free; E. coli BL21(DE3); two protomers per asymmetric unit
T1 sequence (O74859 33-232): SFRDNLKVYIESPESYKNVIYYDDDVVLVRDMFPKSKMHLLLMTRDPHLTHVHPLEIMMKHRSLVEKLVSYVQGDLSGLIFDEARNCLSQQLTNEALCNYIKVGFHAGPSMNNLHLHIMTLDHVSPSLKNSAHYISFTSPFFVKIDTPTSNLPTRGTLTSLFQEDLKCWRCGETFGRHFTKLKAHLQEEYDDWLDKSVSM

[2] = biological target: T2, aprataxin-(33-232), catalytic domain (HIT + Zn finger) (Schizosaccharomyces pombe, UniProt O74859 33-232); assay: X-ray crystallography (2.25 A, P321); Zn2+, guanosine in active site; complementary 3'-PO4 strand … was in the mix but not in the crystal; Crystallization: aprataxin-(33-232) with 5 mM guanosine and 1.2 mM of each 10-mer, mixed with 15% PEG-3350, 0.15 M magnesium acetate; pH and temperature not given in the material; details: protein: recombinant; chain copies: 2; two copies of the same strand; blunt 10-nt duplex, 8/10 mismatches, only terminal G:C pairs canonical
T2 sequence: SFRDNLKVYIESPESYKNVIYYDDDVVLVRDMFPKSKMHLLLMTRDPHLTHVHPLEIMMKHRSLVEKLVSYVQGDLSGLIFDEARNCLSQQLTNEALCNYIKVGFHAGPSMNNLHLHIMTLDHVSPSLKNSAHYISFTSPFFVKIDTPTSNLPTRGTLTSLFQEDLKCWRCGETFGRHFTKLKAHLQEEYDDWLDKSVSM

Nc1nc2c(ncn2[C@@H]2O[C@H](COP(=O)(O)O)[C@@H](O)[C@H]2O)c(=O)[nH]1 [GMP]
X-ray crystal structure, 1.5 Å ([1]; anti conformation): The refined model included guanosine in the active site of the A protomer and GMP

Nc1nc2c(ncn2[C@@H]2O[C@H](CO)[C@@H](O)[C@H]2O)c(=O)[nH]1 [guanosine]
X-ray crystal structure, 1.5 Å ([1]; anti conformation crystal, grown with 5 mM GMP (no guanosine added), guanosine modelled in active site of protomer A, anti conformatio): Difference density allowed placement of guanosine in the active site of the A protomer

B1: 10-mer self-paired mismatched duplex HO-GAATCATAAC-OH (dsDNA)
DNA 1: GAATCATAAC
DNA 2: GAATCATAAC
modifications: 5'-OH and 3'-OH ends
binding result [2]: binds
